{"source": "patent US6592834B1", "about": "“Calcium hydroxide, a process for the production thereof and use thereof” (Kabushiki Kaisha Kaisui Kagaku Kenkyujo, priority 1999, dated 2003)", "assay": "Thermal stability test of polyvinyl chloride sheet in Geer oven at 185° C. (Example 7 composition)", "experimental": "A heat stabilizer (acid-capturing agent) shown in Table 3 was mixed with the above components other than the heat stabilizer in the above amounts, and the mixture was uniformly mixed. Then, it was kneaded with an open roll for 3 minutes at 180° C., to prepare a sheet having a thickness of about 1 mm. The sheet was placed in a Geer oven set at 185° C., and it was estimated for a thermal stability. […] Concerning properties required for the heat stabilizer, the heat stabilizer was required to be nonpoisonous and a low price, to have good dispersibility, to be almost free from coloration, and to give a long period of time before blackening.\nIn Example 7, the calcium hydroxide of the present invention as a heat stabilizer was replaced with a calcium hydroxide obtained by surface-treating a commercially available calcium hydroxide used in Comparative Example 1 (5-1), lead stearate (5-2), and A type zeolite (5-3). These cases were estimated.", "data": [{"sequence": "A type zeolite [5-3]", "values": [{"measurement": "Thermal stability (period of time taken until the sheet was blackened)", "value": 40, "unit": "min"}]}]}
